Results reported in patent US20140205660A1, “Abscisic acid against cancer” (priority 2013, published 2014).
Read-outs that look alike come from different tables or passages of the source.

What was measured:
[1] = 50 mg/ml, Sigma-Aldrich material; cited from earlier work
[2] = tested on: C1498 transplanted tumor with myeloid leukemia; assay: Survival of C57BL/6J mice with C1498 transplanted tumor (Livingston); assay type: in vivo; settings: for survival: oral
From the text: For determination of cancer survival rate, she used C57BL/6J mice and C1498 transplanted tumor with myeloid leukemia purchased from the Jackson Laboratory in Maine. This type of cancer was lethal in mice in 10-15 days. ABA furnished by Hoffmann-Laroche was suspended in saline and administered as suspension. Groups of 10 mice were used for treatment for a total of 7 days.

[3] = tested on: C1498 transplanted tumor with myeloid leukemia; settings: groups of 10 mice, 7 days treatment, cited from earlier work
[4] = tested on: cancer; settings: 62 human cases, digestive ABA plus six vaccines, inconclusive cases not considered; cited from earlier work
[5] = tested on: Lemna gibba G1; settings: cited from earlier work
[6] = tested on: stomata opening; settings: 10 mcM ABA extracellular, cited from earlier work
[7] = tested on: leaf discs of V. Faba; settings: cited from earlier work
[8] = tested on: cancer cell lines; settings: HELA, DU 145, HCT115, K562, C1498, HL-60, SMMC-7721, Tca8113; cited from earlier work
[9] = tested on: HELA, DU145, HCT116 AND K562; settings: cited from earlier work
[10] = tested on: DU-145 (prostate cancer); settings: DU-145 tumor cells; cited from earlier work
[11] = tested on: HL-60 (promyelocytic leukemia); settings: HL-60 tumor cells; cited from earlier work
[12] = tested on: TCA8113 cells; settings: cited from earlier work
[13] = tested on: nuclear protein Ki67; settings: proliferating tumor cells; cited from earlier work
[14] = can rearrange to PA; cited from earlier work

## CC1=CC(=O)CC(C)(C)C1(O)/C=C/C(C)=C\C(=O)O (racemic) [(+/−)-Abscisic acid]
[1]
  appearance of solution in ethanol: clear to slightly hazy

## [S-(Z,E)]-5-(1-Hydroxy-2,6,6-trimethyl-4-oxo-2-cyclohexen-1-yl)-3-methyl-2,4-pentadienoic acid [ABA]
[2]; group II, 1 mg/kg
  survivors: 90%
[2]; 10 mg/kg
  survival: 60%
[2]; 100 mg/kg
  survival: 90%
[3]; ABA 1 mg/kg i.p.
  rate of survival at the end of 14 days: 9 survivors
[3]; ABA 10 mg/kg i.p.
  rate of survival at the end of 14 days: 10 survivors
[3]; ABA 10 mg/kg oral
  rate of survival at the end of 14 days: 6 survivors
[3]; ABA 100 mg/kg oral
  rate of survival at the end of 14 days: 9 survivors
[4]
  success rate: around 82%
[5]; 10-100 mcm ABA
  potential increase in average: 85 mV
[5]; after 15 hours ABA treatment, from −109 mV
  EPD after ABA treatment: −194 mV
[6]; pH 6.15
  inhibition of stomata opening: 98%
[6]; pH 8.0
  inhibition of stomata opening: 57%
[7]
  half-life: 6 to 8 h
[8]
  effect against cancer cell lines: severe effect
[9]
  effects in four human cancer cell lines: caused a tumor growth reduction, reduced cell proliferation rate, changed cell cycle progression, and produced induction of apoptosis
[10]
  changes in morphology of cancer cells: growth in poor condition and nuclear pycnosis
[11]
  changes in morphology of cancer cells: absence of tumor cell nuclear membrane microvillus and presentation of typical apoptosis characteristics
[12]; differentiation of TCA8113 affected by ABA
  Involucrin protein expression: expressed
[12]; under treatment with ABA
  retinoic acid receptor beta (RARBETA) expression: expressed and not silenced
[13]
  nuclear protein Ki67 expression: reduced

## CC1=CC(=O)CC(C)(C)C1(O)/C=C/C(C)=C\C(=O)O (racemic) [racemic ABA, reference compound]
[7]
  half-life: 30 to 32 h

## CC(C=CC1(O)C(C)=CC(=O)CC1(C)CO)=CC(=O)O (centres unmarked) [Metabolite C, 6′-hydroxy methyl ABA]
[14]
  stability: extremely unstable
